Measurements from ChEMBL document CHEMBL5376002, “A Hybrid Antimicrobial Peptide Targeting Staphylococcus aureus with a Dual Function of Inhibiting Quorum Sensing Signaling and an Antibacterial Effect” (J Med Chem, 2023).
≈ marks a conversion by molar mass, not a printed value. Calls of active or inactive are those of the source. The rule behind the calls is not given here. Bridge positions count the residues as written; N and C are the ends. Square brackets hold non-standard residues; d marks the D form. Peptide text beside a SMILES is read from it. Dab = NCC[C@H](N)C(=O)O

Columns and labels:
[1] = Binding affinity to AgrC-I extra-loop-III (unknown origin) assessed as change in enthalpy incubated for 10 mins by isothermal titration calorimetry analysis
Streptococcus mutans [2] = assay: Antibacterial activity against Streptococcus mutans ATCC 25175 assessed as inhibition of bacterial growth incubated for 18 to 24 hrs; format: functional; details: time 18-24 hrs
Staphylococcus aureus [3] = assay: Bactericidal activity against Staphylococcus aureus assessed as inhibition of bacterial growth at 31.25 uM incubated for 120 mins; format: functional, organism-based
Staphylococcus aureus [4] = assay: Antivirulence activity against Staphylococcus aureus assessed as downregulation of psm-alpha expression level at 1 to 100 uM incubated for 24 hrs by qRT-PCR analysis; format: functional, organism-based; details: dose 1-100 µM
Staphylococcus aureus [5] = assay: Antibacterial activity against Staphylococcus aureus ATCC 12600 assessed as inhibition of bacterial growth incubated for 18 to 24 hrs; format: functional; details: time 18-24 hrs
Staphylococcus aureus [6] = assay: Antibacterial activity against Staphylococcus aureus ATCC 43300 assessed as inhibition of bacterial growth incubated for 18 to 24 hrs; format: functional; details: time 18-24 hrs
[7] = Binding affinity to AgrC-I extra-loop-I (unknown origin) assessed as change in enthalpy incubated for 10 mins by isothermal titration calorimetry analysis
Staphylococcus aureus [8] = assay: Inhibition of biofilm formation in Staphylococcus aureus incubated for 24 hrs by crystal violet staining based microscopic analysis; format: functional, organism-based
Streptococcus mutans [9] = assay: Antibacterial activity against Streptococcus mutans UA159 assessed as inhibition of bacterial growth incubated for 18 to 24 hrs; format: functional; details: time 18-24 hrs
RAW264.7 [10] = assay: Cytotoxicity against mouse RAW264.7 cells assessed as cell viability incubated for 48 hrs by MTT assay; format: functional
[11] = Binding affinity to AgrC-I extra-loop-I (unknown origin) assessed as dissociation constant incubated for 10 mins by isothermal titration calorimetry analysis
[12] = Binding affinity to AgrC-I extra-loop-III (unknown origin) assessed as dissociation constant incubated for 10 mins by isothermal titration calorimetry analysis
Erythrocyte = assay: Hemolytic activity in rat RBC assessed as hemolysis measured after 20 hrs; format: toxicity, cell-based
Homo sapiens [13] = species: Homo sapiens; assay: Binding affinity to AgrC-I extra-loop-II (unknown origin) assessed as gibbs free energy change incubated for 10 mins by isothermal titration calorimetry analysis
Staphylococcus aureus [14] = assay: Inhibition of biofilm formation in Staphylococcus aureus at 0.78 to 1.56 uM incubated for 24 hrs by crystal violet staining based analysis; format: functional, organism-based; details: dose 0.78-1.56 µM
Staphylococcus aureus [15] = assay: Antivirulence activity against Staphylococcus aureus assessed as downregulation of hla expression level at 1 to 100 uM incubated for 24 hrs by qRT-PCR analysis; format: functional, organism-based; details: dose 1-100 µM
Staphylococcus aureus [16] = assay: Antibacterial activity against Staphylococcus aureus ATCC 6538p assessed as inhibition of bacterial growth incubated for 18 to 24 hrs; format: functional; details: time 18-24 hrs
Homo sapiens [17] = species: Homo sapiens; assay: Binding affinity to AgrC-I extra-loop-III (unknown origin) assessed as gibbs free energy change incubated for 10 mins by isothermal titration calorimetry analysis
[18] = Binding affinity to AgrC-I extra-loop-II (unknown origin) assessed as change in enthalpy incubated for 10 mins by isothermal titration calorimetry analysis
[19] = tested on: Staphylococcus epidermidis; assay: Antibacterial activity against Staphylococcus epidermidis ATCC 12228 assessed as inhibition of bacterial growth incubated for 18 to 24 hrs; format: functional; details: time 18-24 hrs
RAW264.7 [20] = assay: Cytotoxicity against mouse RAW264.7 cells assessed as cell viability upto 125 uM incubated for 48 hrs by MTT assay; format: functional, cell-based
Escherichia coli = assay: Antibacterial activity against Escherichia coli ATCC 25922 assessed as inhibition of bacterial growth incubated for 18 to 24 hrs; format: functional; details: time 18-24 hrs
[21] = Binding affinity to AgrC-I extra-loop-II (unknown origin) assessed as dissociation constant incubated for 10 mins by isothermal titration calorimetry analysis
Staphylococcus aureus [22] = assay: Inhibition of biofilm formation in Staphylococcus aureus at 0.39 uM incubated for 24 hrs by crystal violet staining based analysis; format: functional, organism-based
[23] = Inhibition of quorum sensing system in Staphylococcus saprophyticus ATCC BAA-750 assessed as downregulation of RNAIII expression level at 1 to 100 uM incubated for 24 hrs by qRT-PCR analysis; details: dose 1-100 µM
Staphylococcus aureus [24] = assay: Antivirulence activity against Staphylococcus aureus ATCC 6538p assessed as downregulation of RNAIII expression level at 2.5 uM measured for 28 passages by qRT-PCR analysis; format: functional, organism-based
[25] = Inhibition of quorum sensing system in Staphylococcus epidermidis ATCC 12228 assessed as downregulation of RNAIII expression level at 1 to 100 uM incubated for 24 hrs by qRT-PCR analysis; details: dose 1-100 µM
Staphylococcus aureus [26] = assay: Antivirulence activity against Staphylococcus aureus assessed as downregulation of RNAIII expression level at 1 to 100 uM incubated for 24 hrs by qRT-PCR analysis; format: functional, organism-based; details: dose 1-100 µM
[27] = Inhibition of quorum sensing system in Staphylococcus aureus ATCC 6538p assessed as downregulation of RNAIII expression level incubated for 24 hrs by qRT-PCR analysis; details: dose 1-100 µM
Streptococcus pneumoniae [28] = assay: Antibacterial activity against Streptococcus pneumoniae ATCC 49619 assessed as inhibition of bacterial growth incubated for 18 to 24 hrs; format: functional; details: time 18-24 hrs
[29] = tested on: Staphylococcus saprophyticus; assay: Antibacterial activity against Staphylococcus saprophyticus ATCC BAA-750 assessed as inhibition of bacterial growth incubated for 18 to 24 hrs; format: functional; details: time 18-24 hrs
Homo sapiens [30] = species: Homo sapiens; assay: Binding affinity to AgrC-I extra-loop-I (unknown origin) assessed as gibbs free energy change incubated for 10 mins by isothermal titration calorimetry analysis
[31] = Toxicity in Kunming mouse infected with Staphylococcus aureus ATCC 6538p assessed as animal survival rate 5 mg/kg, ip pre-infected with bacteria for 1 hr followed by compound administration and measured after 7 days; format: organism-based; details: in vivo, 168 h, time 7 day
Streptococcus pneumoniae [32] = assay: Bactericidal activity against Streptococcus pneumoniae ATCC 49619 assessed as inhibition of bacterial growth incubated for 18 to 24 hrs; format: functional; details: time 18-24 hrs
[33] = tested on: Staphylococcus epidermidis; assay: Bactericidal activity against Staphylococcus epidermidis ATCC 12228 assessed as inhibition of bacterial growth incubated for 18 to 24 hrs; format: functional; details: time 18-24 hrs
Cell membrane = assay: Induction of cell membrane damage in Staphylococcus aureus ATCC 6538p assessed as increase in nucleic acid leakage measured up to 30 mins by UV-spectrophotometer analysis; format: subcellular
Staphylococcus aureus [34] = assay: Bactericidal activity against Staphylococcus aureus ATCC 12600 assessed as inhibition of bacterial growth incubated for 18 to 24 hrs; format: functional; details: time 18-24 hrs
[35] = tested on: Staphylococcus saprophyticus; assay: Bactericidal activity against Staphylococcus saprophyticus ATCC BAA-750 assessed as inhibition of bacterial growth incubated for 18 to 24 hrs; format: functional; details: time 18-24 hrs
Staphylococcus aureus [36] = assay: Bactericidal activity against Staphylococcus aureus ATCC 43300 assessed as inhibition of bacterial growth incubated for 18 to 24 hrs; format: functional; details: time 18-24 hrs
Staphylococcus aureus [37] = assay: Bactericidal activity against Staphylococcus aureus ATCC 6538p assessed as inhibition of bacterial growth incubated for 18 to 24 hrs; format: functional; details: time 18-24 hrs

**Q.** For `CC[C@H](C)[C@H](NC(C)=O)C(=O)N[C@@H](CC(N)=O)C(=O)N[C@H]1CCNC(=O)[C@H](CC(C)C)NC(=O)[C@H](CC(C)C)NC(=O)[C@H](Cc2ccccc2)NC(=O)[C@H](C)NC1=O` (Ac-IN[Dab]AFLL; lactam 3-C), which deltaH [1] is on record?
**A.** 0.356 kJ/mol

**Q.** What about the MIC (Streptococcus mutans [2]) of the same compound?
**A.** > 100 µM

**Q.** What about the Activity (Staphylococcus aureus [3]) of the same compound?
**A.** inactive

**Q.** What about the Activity (Staphylococcus aureus [4]) of the same compound?
**A.** Active

**Q.** And the MIC (Staphylococcus aureus [5])?
**A.** > 100 µM

**Q.** What about the MIC (Staphylococcus aureus [6]) of the same compound?
**A.** > 100 µM

**Q.** And the deltaH [7]?
**A.** -5.98 kJ/mol

**Q.** What about the inhibition (Staphylococcus aureus [8]) of the same compound?
**A.** Active

**Q.** What about the MIC (Streptococcus mutans [9]) of the same compound?
**A.** > 100 µM

**Q.** What about the CC50 (RAW264.7 [10]) of the same compound?
**A.** > 125 µM

**Q.** What about the Kd [11] of the same compound?
**A.** 1 pM

**Q.** And the Kd [12]?
**A.** 0.137 µM

**Q.** What about the Activity (Erythrocyte) of the same compound?
**A.** Toxic

**Q.** And the deltaG (Homo sapiens [13])?
**A.** -15.1 kJ/mol

**Q.** And the inhibition (Staphylococcus aureus [14])?
**A.** Active

**Q.** What about the Activity (Staphylococcus aureus [15]) of the same compound?
**A.** Active

**Q.** And the MIC (Staphylococcus aureus [16])?
**A.** > 100 µM

**Q.** What about the deltaG (Homo sapiens [17]) of the same compound?
**A.** -39.2 kJ/mol

**Q.** And the deltaH [18]?
**A.** -219 kJ/mol

**Q.** And the MIC [19]?
**A.** > 100 µM

**Q.** And the Activity (RAW264.7 [20])?
**A.** inactive

**Q.** And the MIC (Escherichia coli)?
**A.** > 100 µM

**Q.** And the Kd [21]?
**A.** 2320 µM

**Q.** What about the inhibition (Staphylococcus aureus [22]) of the same compound?
**A.** Active

**Q.** What about the inhibition [23] of the same compound?
**A.** inactive

**Q.** And the Activity (Staphylococcus aureus [24])?
**A.** Active

**Q.** What about the inhibition [25] of the same compound?
**A.** inactive

**Q.** What about the Activity (Staphylococcus aureus [26]) of the same compound?
**A.** Active

**Q.** And the inhibition [27]?
**A.** Dose-Dependent Effect

**Q.** And the MIC (Streptococcus pneumoniae [28])?
**A.** > 100 µM

**Q.** What about the MIC [29] of the same compound?
**A.** > 100 µM

**Q.** And the deltaG (Homo sapiens [30])?
**A.** -68.6 kJ/mol

**Q.** For `CN[C@H](CC(C)C)C(=O)N[C@H]1C(=O)N[C@@H](CC(N)=O)C(=O)N[C@H]2C(=O)N[C@H]3C(=O)N[C@H](C(=O)N[C@H](C(=O)O)c4cc(O)cc(O)c4-c4cc3ccc4O)[C@H](O)c3ccc(c(Cl)c3)Oc3cc2cc(c3O[C@@H]2O[C@H](CO)[C@@H](O)[C@H](O)[C@H]2O[C@H]2C[C@](C)(N)[C@H](O)[C@H](C)O2)Oc2ccc(cc2Cl)[C@H]1O` [VANCOMYCIN], which Activity [31] is on record?
**A.** 90%

**Q.** What about the MIC (Streptococcus mutans [2]) of the same compound?
**A.** > 100 µM

**Q.** What about the MBC (Streptococcus pneumoniae [32]) of the same compound?
**A.** 0.19 µM (≈ 0.275 µg/mL)

**Q.** And the MIC (Staphylococcus aureus [5])?
**A.** 0.39 µM (≈ 0.565 µg/mL)

**Q.** And the MIC (Staphylococcus aureus [6])?
**A.** 0.39 µM (≈ 0.565 µg/mL)

**Q.** And the MIC (Streptococcus mutans [9])?
**A.** > 100 µM

**Q.** And the MBC [33]?
**A.** 0.39 µM (≈ 0.565 µg/mL)

**Q.** What about the MIC (Staphylococcus aureus [16]) of the same compound?
**A.** 0.39 µM (≈ 0.565 µg/mL)

**Q.** What about the Activity (Cell membrane) of the same compound?
**A.** inactive

**Q.** And the MBC (Staphylococcus aureus [34])?
**A.** 0.39 µM (≈ 0.565 µg/mL)

**Q.** And the MIC [19]?
**A.** 0.39 µM (≈ 0.565 µg/mL)

**Q.** What about the MIC (Escherichia coli) of the same compound?
**A.** > 100 µM

**Q.** And the MBC [35]?
**A.** 0.39 µM (≈ 0.565 µg/mL)

**Q.** And the MBC (Staphylococcus aureus [36])?
**A.** 0.39 µM (≈ 0.565 µg/mL)

**Q.** And the MIC (Streptococcus pneumoniae [28])?
**A.** 0.19 µM (≈ 0.275 µg/mL)

**Q.** What about the MIC [29] of the same compound?
**A.** 0.39 µM (≈ 0.565 µg/mL)

**Q.** What about the MBC (Staphylococcus aureus [37]) of the same compound?
**A.** 0.39 µM (≈ 0.565 µg/mL)
